Assay results: ChEMBL document CHEMBL5360649, “Potential Broad-Spectrum Antimicrobial, Wound Healing, and Disinfectant Cationic Peptide Crafted from Snake Venom” (J Med Chem, 2023)
Active and inactive are the calls of the source. No cut-off for these calls is given here.

How the values were obtained:
[1] = system: Escherichia coli; experiment: Induction of morphological changes in Escherichia coli assessed as cellular destruction at MIC concentration incubated for 6 hrs by AFM analysis; assay type: functional, organism-based
[2] = system: Staphylococcus aureus; experiment: Antibacterial activity against methicillin-resistant Staphylococcus aureus assessed as induction of cellular damage at MIC concentration incubated for 30 mins by SYTO9/PI staining based fluorescence microscopic analysis; assay type: functional, organism-based
[3] = system: Escherichia coli; experiment: Induction of morphological changes in Escherichia coli at MIC concentration incubated for 6 hrs by AFM analysis; assay type: functional, organism-based
[4] = species: Rattus norvegicus; experiment: Induction of wound healing in surgically-induced Albino Wistar rat wound model inoculated with methicillin-resistant Staphylococcus aureus assessed as dense epithelial-tissue layers at 10 uM measured after 11 days by H&E staining based analysis; assay type: functional; conditions: time 11.0 day
[5] = system: Escherichia coli; experiment: Induction of morphological changes in Escherichia coli at MIC concentration incubated for 60 mins by SEM analysis; assay type: functional, organism-based
[6] = system: Escherichia coli; experiment: Induction of morphological changes in Escherichia coli assessed as decrease in legible cells at MIC concentration incubated for 6 hrs by AFM analysis; assay type: functional, organism-based
[7] = system: Klebsiella pneumoniae; experiment: Induction of morphological changes in carbapenem resistant Klebsiella pneumoniae ATCC BAA-1705 assessed as inhibition of cell division by measuring filamented cells at MIC concentration incubated for 60 mins by SEM analysis; assay type: functional, organism-based
[8] = system: Pseudomonas aeruginosa; experiment: Induction of resistance development in Pseudomonas aeruginosa assessed as change in MIC at 0.5 times of MIC incubated with compound for 12 hrs followed by replacement with fresh medium for 12 hrs and measured after 20 repeated cycles; assay type: functional, organism-based; conditions: time 240.0 hrs
[9] = system: Klebsiella pneumoniae; experiment: Antibiofilm activity against Klebsiella pneumoniae assessed as biofilm eradication at 0.5 times of MIC incubated for 24 hrs by CV staining based analysis relative to control; assay type: functional
[10] = system: Escherichia coli; experiment: Induction of morphological changes in Escherichia coli assessed as membrane damage at MIC concentration incubated for 60 mins by SEM analysis; assay type: functional, organism-based
[11] = system: Klebsiella pneumoniae; experiment: Antibacterial activity against carbapenem resistance Klebsiella pneumoniae ATCC BAA-1705 assessed as inhibition of bacterial growth incubated for 0.5 to 8.5 hrs by microtiter plate reader analysis; assay type: functional, organism-based; conditions: dose 1.25-40 µM, time 0.5-8.5 hrs
[12] = system: Pseudomonas aeruginosa; experiment: Antibiofilm activity against Pseudomonas aeruginosa assessed as clearance of preformed biofilm at 1 times of MIC incubated for 24 hrs by CV staining based analysis relative to control; assay type: functional
[13] = system: Staphylococcus aureus; experiment: Antibiofilm activity in methicillin-resistant Staphylococcus aureus assessed as biofilm disintegration at 0.5 to 1 times of MIC incubated for 24 hrs by Congo red dye based fluorescence analysis; assay type: functional, organism-based
[14] = system: Klebsiella pneumoniae; experiment: Antibiofilm activity against preformed biofilm in Klebsiella pneumoniae assessed as decrease in cell viability at MIC incubated overnight by MTT assay relative to control; assay type: functional
[15] = system: Klebsiella pneumoniae; experiment: Antibiofilm activity against Klebsiella pneumoniae assessed as increase in dead cell proportion at 0.5 times of MIC incubated overnight by SYTO9/PI staining based fluorescence analysis; assay type: functional, organism-based
[16] = system: PBMC; experiment: Effect on cell viability in human PBMC assessed as increase in cell number by measuring rise in cell proliferation percentage at 12.5 uM measured after 12 hrs by lymphocyte proliferation assay (12 hrs incubated Rvb = 478.774%); assay type: toxicity, cell-based
[17] = system: Klebsiella pneumoniae; experiment: Antibacterial activity against Klebsiella pneumoniae assessed as cell division block by measuring cellular elongation at 0.5 to 1 times of MIC incubated for 30 mins by SYTO9/PI staining based fluorescence microscopic analysis; assay type: functional, organism-based
[18] = Stability in human serum assessed as intact peptide remaining at 1 mM measured after 24 hrs by HPLC analysis; assay type: ADME, cell-free; conditions: read-out: Stability
[19] = system: Klebsiella pneumoniae; experiment: Antibiofilm activity against Klebsiella pneumoniae assessed as biofilm clearance incubated for 24 hrs by Congo red dye based fluorescence analysis; assay type: functional, organism-based
[20] = system: Klebsiella pneumoniae; experiment: Antibacterial activity against Klebsiella pneumoniae assessed as cell division block by measuring bacterial filamentation at 0.5 to 1 times of MIC incubated for 30 mins by SYTO9/PI staining based fluorescence microscopic analysis; assay type: functional, organism-based
[21] = species: Rattus norvegicus; experiment: Induction of wound healing in surgically-induced Albino Wistar rat wound model assessed as proper formation of blood vessels at 10 uM measured after 11 days by H&E staining based analysis; assay type: functional; conditions: time 11.0 day
[22] = system: Pseudomonas aeruginosa; experiment: Induction of morphological changes in Pseudomonas aeruginosa assessed as membrane damage at MIC concentration incubated for 60 mins by SEM analysis; assay type: functional, organism-based
[23] = system: Cell membrane; experiment: Induction of inner membrane permeabilization in Escherichia coli assessed as increase in fluorescence at 0.5 to 1 times of MIC incubated for 60 mins by PI staining based fluorescence analysis; assay type: subcellular
[24] = system: Staphylococcus aureus; experiment: Bactericidal activity against patient-derived Staphylococcus aureus assessed as reduction in bacterial growth incubated for 24 hrs by Mueller Hinton Agar based plate analysis; assay type: functional
[25] = system: Staphylococcus aureus; experiment: Antibacterial activity against methicillin resistant Staphylococcus aureus assessed as inhibition of bacterial growth at 1.25 to 40 uM incubated for 8 hrs by microtiter plate reader analysis; assay type: functional, organism-based; conditions: dose 1.25-40 µM
[26] = system: Klebsiella pneumoniae; experiment: Induction of morphological changes in carbapenem resistant Klebsiella pneumoniae ATCC BAA-1705 assessed as cellular defacement at MIC concentration incubated for 60 mins by SEM analysis; assay type: functional, organism-based
[27] = Induction of wound healing in surgically-induced Albino Wistar rat wound model assessed as decrease in mean open wound percentage at 10 uM measured after 11 days by photographic analysis (reference value: 32.25%); assay type: functional; parameters: scale not given: the % may be the effect or the level left; conditions: time 11 day
[28] = system: Escherichia coli; experiment: Induction of morphological changes in Escherichia coli assessed as cellular destruction at MIC concentration incubated for 6 hrs by SEM analysis; assay type: functional, organism-based
[29] = system: Pseudomonas aeruginosa; experiment: Antibacterial activity against Pseudomonas aeruginosa assessed as inhibition of bacterial growth at 1.25 to 40 uM incubated for 8 hrs by microtiter plate reader analysis; assay type: functional, organism-based; conditions: dose 1.25-40 µM
[30] = system: Klebsiella pneumoniae; experiment: Induction of morphological changes in carbapenem resistant Klebsiella pneumoniae ATCC BAA-1705 at MIC concentration incubated for 6 hrs by AFM analysis; assay type: functional, organism-based
[31] = system: U-937; experiment: Immunomodulatory activity in human U-937 cells assessed as reduction in LPS-induced IL-6 expression level incubated for 24 hrs by radioimmunoprecipitation based dot-plot analysis; assay type: functional, cell-based; conditions: dose 5-10 µM
[32] = system: NMDF; experiment: Induction of cell migration in NMDF cells at 5 uM incubated for 24 hrs by wound healing scratch/mirgation assay; assay type: functional, cell-based; conditions: Mus musculus
[33] = Stability in human serum assessed as intact peptide remaining at 1 mM measured after 4 hrs by HPLC analysis; assay type: ADME, cell-free; conditions: read-out: Stability
[34] = system: Staphylococcus aureus; experiment: Antibiofilm activity against methicillin-resistant Staphylococcus aureus assessed as biofilm eradication at 1 times of MIC incubated for 24 hrs by CV staining based analysis relative to control; assay type: functional
[35] = system: Klebsiella pneumoniae; experiment: Antibiofilm activity against Klebsiella pneumoniae assessed as clearance of preformed biofilm at 1 times of MIC incubated for 24 hrs by CV staining based analysis relative to control; assay type: functional
[36] = species: Rattus norvegicus; experiment: Induction of wound healing in surgically-induced Albino Wistar rat wound model assessed as densely packed epithelium containing keratinocytes at 10 uM measured after 11 days by H&E staining based analysis; assay type: functional; conditions: time 11.0 day
[37] = system: Staphylococcus aureus; experiment: Induction of morphological changes in methicillin-resistant Staphylococcus aureus assessed as membrane damage at MIC concentration incubated for 60 mins by SEM analysis; assay type: functional, organism-based
[38] = Stability in human serum assessed as intact peptide remaining at 1 mM measured after 12 hrs by HPLC analysis; assay type: ADME, cell-free; conditions: read-out: Stability

H-FLPIIKWVKKFFWRWR-OH
Activity [1]: Active | Activity [2]: Active | Activity [3]: Active | Activity [4]: Active | Activity [5]: Active | Activity [6]: Active | Activity [7]: Active | Activity [8]: inactive | Activity [9]: ~62% | Activity [10]: Active | Activity [11]: Dose-Dependent Effect | Activity [12]: ~56% | Activity [13]: Active | Activity [14]: 51.78% | Activity [15]: inactive | Activity [16]: 55.188% | Activity [17]: Active | remaining at 24 h, 1000 µM [18]: 47.1% | Activity [19]: Dose-Dependent Effect | Activity [20]: Active | Activity [21]: Active | Activity [22]: Active | Activity [23]: Active | MBC [24]: 8 µM | Activity [25]: Active | Activity [26]: Active | Activity [27]: 5.6% | Activity [28]: Active | Activity [29]: Active | Activity [30]: Active | Activity [31]: Dose-Dependent Effect | Activity [32]: inactive | remaining at 4 h, 1000 µM [33]: 82.6% | Activity [34]: <=87.6% | Activity [35]: ~70% | Activity [36]: Active | Activity [37]: Active | remaining at 12 h, 1000 µM [38]: 54.5%
